Laboratory results taken from patent US5266707A, “3,5-dihydroxyheptanoic acid derivatives” (Fujirebio Inc., priority 1991, dated 1993).
Where two headings read alike, the source gives them in different places.

Assays:
[1] = tested on: automatic TBARS reproduction of the rat brain homogenate; assay: Measurement of Anti-oxidation Function (inhibition of automatic TBARS reproduction of rat brain homogenate); format: biochemical; details: inhibition of TBARS in rat brain homogenate
HMG-CoA Reductase = target: T1, HMG-CoA Reductase (Rattus norvegicus, UniProt P51639); assay: Measurement of Inhibitory Activity on HMG-CoA Reductase (activity ratio of biosynthesis of cholesterol); format: biochemical
T1 construct: from tissue
T1 sequence (P51639 1-887): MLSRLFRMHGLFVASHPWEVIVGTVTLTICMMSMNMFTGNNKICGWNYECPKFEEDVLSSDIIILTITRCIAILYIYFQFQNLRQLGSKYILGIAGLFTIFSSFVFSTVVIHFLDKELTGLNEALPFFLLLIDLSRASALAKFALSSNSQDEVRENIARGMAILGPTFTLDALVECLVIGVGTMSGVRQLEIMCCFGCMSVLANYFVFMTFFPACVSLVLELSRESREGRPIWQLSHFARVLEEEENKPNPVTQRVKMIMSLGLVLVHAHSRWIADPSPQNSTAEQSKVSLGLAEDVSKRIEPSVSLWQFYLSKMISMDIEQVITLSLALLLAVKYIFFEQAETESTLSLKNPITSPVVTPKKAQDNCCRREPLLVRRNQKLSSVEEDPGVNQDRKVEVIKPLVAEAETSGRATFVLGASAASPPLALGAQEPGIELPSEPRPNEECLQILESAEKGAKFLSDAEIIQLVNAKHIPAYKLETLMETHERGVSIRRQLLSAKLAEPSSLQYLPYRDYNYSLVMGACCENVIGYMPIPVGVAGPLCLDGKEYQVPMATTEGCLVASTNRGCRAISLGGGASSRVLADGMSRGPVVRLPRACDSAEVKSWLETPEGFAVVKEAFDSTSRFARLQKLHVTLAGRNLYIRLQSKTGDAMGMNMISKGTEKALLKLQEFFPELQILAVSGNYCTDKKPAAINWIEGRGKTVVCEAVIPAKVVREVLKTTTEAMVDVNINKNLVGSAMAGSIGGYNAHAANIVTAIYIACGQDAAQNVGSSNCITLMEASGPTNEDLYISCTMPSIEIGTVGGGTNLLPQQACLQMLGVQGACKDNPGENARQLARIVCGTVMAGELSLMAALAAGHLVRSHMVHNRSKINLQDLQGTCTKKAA

[2] = tested on: total serum cholesterol in model rats with Triton-induced hyperlipemia; assay: Measurement of Reduction in Cholesterol Value (total serum cholesterol, Triton-induced hyperlipemia model rats); format: in vivo, rat; details: value of Compactin (ML-236B) as reference (100)
[3] = Relative value when the value of Compactin is 100

Row | Compound | IC50 [1] [µM] | Activity ratio of Biosynthesis of Cholesterol, Reactive Inhibitory Potency (HMG-CoA Reductase; [3]) | Reduction of Cholesterol Value [2] | Activity ratio of Biosynthesis of Cholesterol, Reactive Inhibitory Potency (HMG-CoA Reductase)
1 | Cc1c(N)c(C)c2c(c1CC[C@H]1C[C@H](O)CC(=O)O1)OC(C)(C)C2 (racemic) [Compound No. 10, trans-(±)-6-[5-amino-2,3-dihydro-2,2,4,6-tetramethylbenzo[b]furan-7-yl]ethyl-4-hydroxytetrahydropyran-2-one] | 2.75 |  |  | 
2 | Cc1c(CC[C@H]2C[C@H](O)CC(=O)O2)c2c(c(C)c1N1Cc3ccccc3C1)CC(C)(C)O2 (racemic) [Compound No. 13, trans-(±)-6-[2,3-dihydro-5-(isoindolin-2-yl)-2,2,4,6-tetramethylbenzo[b]furan-7-yl]ethyl-4-hydroxytetrahydropyran-2-one] | 1.44 | 250 | 180 | 
3 | Cc1c(CC[C@H]2C[C@H](O)CC(=O)O2)c2c(c(C)c1N1CCCC1)CC(C)(C)O2 (racemic) [Compound No. 17, trans-(±)-6-[2,3-dihydro-2,2,4,6-tetramethyl-5-(pyrrolidin-1-yl)benzo[b]furan-7-yl]ethyl-4-hydroxytetrahydropyran-2-one] | 1.49 |  |  | 
4 | Cc1c(CC[C@H]2C[C@H](O)CC(=O)O2)c2c(c(C)c1N1CCc3ccccc3C1)CC(C)(C)O2 (racemic) [Compound No. 24, trans-(±)-6-[2,3-dihydro-5-(1,2,3,4-tetrahydroisoquinolin-2-yl)-2,2,4,6-tetramethylbenzo[b]furan-7-yl]ethyl-4-hydroxytetrahydropyran-2-one] | 1.63 |  |  | 
5 | Cc1c2c(c(CC[C@H]3C[C@H](O)CC(=O)O3)c(C(C)C)c1NCc1ccccc1)OC(C)(C)C2 (racemic) [Compound No. 43, trans-(±)-6-[5-benzylamino-2,3-dihydro-2,2,4-trimethyl-6-(propan-2-yl)benzo[b]furan-7-yl]ethyl-4-hydroxytetrahydropyran-2-one] |  | 170 |  | 
6 | Cc1c(CCC(O)CC(O)CC(=O)O)c2c(c(C)c1-n1cc3ccccc3c1)CC(C)(C)O2 (racemic) [Compound No. 94, sodium 7-[2,3-dihydro-5-isoindolyl-2,2,4,6-tetramethylbenzo[b]furan-7-yl]-3,5-dihydroxyheptanoate] |  | 1550 |  | 
7 | Cc1c(CC[C@@H]2C[C@@H](O)CC(=O)O2)c2c(c(C)c1-n1cc3ccccc3c1)CC(C)(C)O2 (relative stereo) [Compound No. 14, trans-(±)-6-[2,3-dihydro-5-isoindolyl-2,2,4,6-tetramethylbenzo[b]furan-7-yl]ethyl-4-hydroxytetrahydropyran-2-one] |  | 250 |  | 
8 | CC[C@H](C)C(=O)O[C@H]1CCC=C2C=C[C@H](C)[C@H](CC[C@@H]3C[C@@H](O)CC(=O)O3)[C@H]21 [Compactin, reference compound] |  |  | 100 | 
9 | Cc1c(CCC(O)CC(O)CC(=O)O)c2c(c(C)c1N1Cc3ccccc3C1)CC(C)(C)O2 (stereo not shown) [Compound No. 12, 7-[2,3-dihydro-5-(isoindolin-2-yl)-2,2,4,6-tetramethylbenzo[b]furan-7-yl]3,5-dihydroxyheptoic acid] | 1.58 | 1500 | 330 | 
10 | Cc1c(CCC(O)CC(O)CC(=O)[O-])c2c(c(C)c1N1Cc3ccccc3C1)CC(C)(C)O2.[Na+] (stereo not shown) [Compound No. 15, sodium 7-[2,3-dihydro-5-(isoindolin-2-yl)-2,2,4,6-tetramethylbenzo[b]furan-7-yl]-3,5-dihydroxyheptanoate] | 1.67 |  | 320 | 830
11 | CC(C)c1c(N2Cc3ccccc3C2)cc2c(c1CCC(O)CC(O)CC(=O)[O-])OC(C)(C)C2.[Na+] (stereo not shown) [Compound No. 76, sodium 7-[2,3-dihydro-5-(isoindolin-2-yl)-2,2-dimethyl-6-(propan-2-yl)benzo[b]furan-7-yl]-3,5-dihydroxyheptanoate] | 6.5 |  |  | 2730
12 | CC1(C)Cc2cc(N3Cc4ccccc4C3)c(C(C)(C)C)c(CCC(O)CC(O)CC(=O)O)c2O1 (stereo not shown) [Compound No. 93, sodium 7-[6-(t-butyl)-2,3-dihydro-5-(isoindolin-2-yl)-2,2-dimethylbenzo[b]furan-7-yl]-3,5-dihydroxyheptanoate] | 2 |  |  | 
